Among the data in the OPERA property sets (Mansouri et al. 2018) are logP values, retold here.

Peptide text beside a SMILES is read from it. * marks the point of attachment. Boc = CC(C)(C)OC(=O)*

`CCCNCCC` had a logP of 1.67.
With `CC1CCC(=O)CC1` the figure was 1.38.
Next, `CCCC(=O)OC1(C(=O)CCl)C(C)CC2C3CCC4=CC(=O)C=CC4(C)C3(F)C(O)CC21C` (stereo not given): 3.63.
`CCCCCCCCOC(=O)c1cc(O)c(O)c(O)c1` showed a log partition coefficient (logP) of 3.66.
Next, `NS(=O)(=O)c1cccc([N+](=O)[O-])c1`: 0.55; `Cc1c(Cl)cccc1Nc1ccccc1CC(=O)O`: 4.64; `O=C(O)COc1ccccc1Cl`: 1.86.
With `CCOP(=S)(OCC)SCSCC` the figure was 3.56.
With `O=C(O)Cn1cccc1` the figure was 0.7.
With `C1=CCOC1`, the logP was 0.46.
With `CCCC(NC(C)=O)C(=O)OC` (stereo not given) the figure was 0.33; with `Cc1nnc(NS(=O)(=O)c2ccc(N)cc2)s1`, 0.54; with `CN(C)N=Nc1ccccc1C(N)=O`, 1.73.
With `CN(C)CC/C=C1\c2ccccc2CSc2ccccc21` the figure was 4.49.
With `Nc1ccccc1SSc1ccccc1N` the figure was 3.05; with `O=[N+]([O-])c1ccc2c(c1)c([N+](=O)[O-])cc[n+]2[O-]`, 0.9.
In turn, `C[C@@H]1C[C@H]2[C@@H]3CCC4=CC(=O)C=C[C@]4(C)[C@@]3(F)[C@@H](O)C[C@]2(C)[C@H]1C(=O)CO` gave a logP of 2.35.
Regarding `CCOc1cccc(O)c1`, the lipophilicity (logP) was 1.98.
Turning to `O=Cc1ccc([N+](=O)[O-])cc1`, the logP is 1.56.
With `Oc1ccc(Oc2ccccc2)cc1` the figure was 3.35; with `CCCCCC(C)=O`, 1.98; with `Cc1ccc(O)c(C)c1`, 2.3.
In turn, `O=[N+]([O-])c1ccc(C=Cc2nccs2)o1` came in with a logP of 1.97.
`NNC(=O)c1ccccc1Br`: the logP came to 0.26.
Next, `Clc1ccc2nccnc2c1`: 2.1; `c1nnnn1C12CC3CC(CC(C3)C1)C2`: 2.95.
Next, `c1ccc2nc3ccccc3nc2c1`: 2.84.
With `CNCc1cccnc1` the figure was 0.39; with `CC(C)c1cc(Oc2ccccc2)cc(C(C)C)c1NC(=S)NC(C)(C)C`, 6; with `COc1ccc(C=C(C(C)=O)C(C)=O)cc1`, 1.73.
`COc1ccc2cc(C(C)C(=O)OCC(=O)N(C)CCO)ccc2c1` (stereo not given): the logP was determined as 2.01.
On to `Cc1cnnc2ccc(Cl)cc12`, for which the logP was found to be 1.96.
Next, `OCC(O)c1ccc(O)c(O)c1` (stereo not given): -1.01.
Compound `c1ccc(CNc2ccccc2)cc1` registered a logP of 3.13.
As for `CC(=O)CCC(C)=O`, the logP is -0.27.
With `CCOc1ccc2cc[nH]c2c1` the figure was 2.53.
With `CCCCOc1cccnn1` the figure was 1.8.
With `Brc1ccoc1`, the logP was 2.18.
Next, `CC(C)C(NC(=O)C(Cc1ccccc1)NC(=O)OC(C)(C)C)C(=O)O` (stereo not drawn) (Boc-Phe-Val-OH; configuration not given here): 2.88.
On to `O=[N+]([O-])c1ccc(O)c2ncccc12`, for which the logP stood at 1.99.
As to `CNC(=O)Oc1ccc(C=O)cc1`, the lipophilicity (logP) stood at 0.99.
With `CN(C)C(=O)OCc1ccc(F)cc1` the figure was 2.3; with `NC(Cc1ccccc1)Cc1ccccc1`, 3.35.
On to `CC(=O)c1ccc[nH]1`, for which the lipophilicity (logP) came out at 0.93.
`NC(=O)c1ccco1` registered a lipophilicity (logP) of -0.11.
Turning to `CCC(C)c1ccc(O)cc1` (stereo not given), the logP amounted to 3.08.
On to `CS(=O)(=O)c1cccc([N+](=O)[O-])c1`, for which the logP came out at 0.5.
With `Nc1nc2[nH]cnc2c(=O)[nH]1` the figure was -0.91; with `O=C(O)CBr`, 0.41.
With `CN(C)C(=O)C(C(=O)N(C)C)C(=O)N(C)C`, the logP was -3.09.
Consider `CC(C)(C)C(=O)NN`, for which the log partition coefficient (logP) was -0.35.
`CCNc1nc(NCC(C)C)nc(SC(F)F)n1` had a logP of 4.3.
For `CNS(=O)(=O)c1ccc(N)cc1`, the log partition coefficient (logP) is -0.01.
With `Cn1cnc2c1c(=O)[nH]c(=O)n2C` the figure was -0.78; with `CC(C(=O)O)(c1ccccc1)c1ccccc1`, 2.69.
With `CC(=C(C#N)C#N)c1ccccc1` the figure was 2.1.
With `O=C(NO)Nc1ccccc1` the figure was 0.41; with `O=[N+]([O-])c1cccc(O)c1`, 2.
Take `OCCOc1ccccc1`: the logP came out at 1.16.
Compound `CCOC(=O)C(=Cc1ccc(F)cc1)C(=O)OCC` displayed a logP of 3.1.
Next, `O=C=O`: 0.83; `CNCC(O)c1ccc(O)cc1` (stereo not given): -0.45; `O=C(Nc1ccccc1)Oc1ccccc1`: 3.3.
With `CC[C@H](C)[C@H](NC(=O)[C@@H](NC(C)=O)[C@@H](C)O)C(N)=O` (Ac-Thr-Ile-NH2) the figure was -0.86; with `Cc1ccccc1C`, 3.12; with `COC(=O)CCCO`, -0.06.
Next, `c1ccc2c(c1)CCc1ccccc1-2`: 4.52.
Compound `CCOP(=S)(OCC)SCCS(=O)(=O)CC` registered a logP of 1.87.
With `Cc1cc(Cl)ccc1NC1=NCCN1` the figure was 1.8; with `NC(=O)C1(N2CCCCC2)CCN(CCCC(=O)c2ccc(F)cc2)CC1`, 2.02.
As to `CCNC(=O)c1ccccc1`, the lipophilicity (logP) is 1.28.
The compound `CN=C(O)Oc1cccc(C)c1` displayed a lipophilicity (logP) of 1.7.
The compound `COP(=O)(OC)OC(=CCl)c1cc(Cl)c(Cl)cc1Cl` gave a lipophilicity (logP) of 3.53.
`CN(C)c1ccc2c(c1)C(=O)N(O)C2=O` yielded a logP of 1.27.
Turning to `Nc1ccc(Cl)nn1`, the logP is 0.35.
Next, `CCCC(=NOCC)C1C(=O)CC2(CCC(CC)CC2)OC1=O` (stereo not given): 4.48.
Next, `CCCCOCCOCCSC#N`: 1.68; `COP(=S)(OC)Oc1nc(Cl)c(Cl)cc1Cl`: 4.31.
Next, `c1ccc(Cn2nccn2)cc1`: 1.56; `O=C(O)COc1ccc(Cl)cc1`: 2.25; `c1cncc(CN2CCOCC2)c1`: 0.04.
Turning to `CC(C)Oc1ccccc1O`, the lipophilicity (logP) stood at 2.09.
For the compound `O=Nc1c(O)ccc2ccccc12`, the log partition coefficient (logP) came to 2.28.
Next, `CC(=O)NCc1cc(C(=O)NN)ccn1`: -1.58; `N#Cc1ccc(NC=O)cc1`: 1.08.
For the compound `CCCOc1cncc(C)n1`, the lipophilicity (logP) is 2.29.
Next, `O=C(O)Cc1c[nH]c2ccccc12`: 1.41; `CCN(CC)CCCN(c1ccccc1)C1Cc2ccccc2C1`: 4.86; `COc1ccccc1`: 2.11.
With `CC(=O)Oc1ccccc1` the figure was 1.49; with `CCc1cc(-c2ccccc2)nnc1NCCN1CCOCC1`, 2.53; with `CCCOC(=O)c1ccccc1C(=O)OCCC`, 3.27.
With `Clc1cccc(-c2ccccc2)c1` the figure was 4.58; with `CCCCC(NC(Cc1ccccc1)C(=O)N1CCC(OCOC)CC1)C(=O)NC(CC1CCCCC1)C(O)CC(C(=O)NCCNc1noc(N)n1)C(C)C` (stereo not given), 4.11; with `O=[N+]([O-])c1ccc(OCCN2CCOCC2)cc1`, 1.54.
`CN(C)CCCCc1cccnc1` yielded a logP of 1.49.
With `Oc1cccc(-c2ccccc2)c1` the figure was 3.23; with `Cc1ccc2[nH]c(=O)[nH]c(=O)c2c1`, 0.55; with `Nc1nc(N)c2nc(-c3ccccc3)c(N)nc2n1`, 0.98.
With `C/C(=N/Nc1nc(C)cc(C)n1)c1ccccc1C` the figure was 2.98; with `CC(C)OC(=O)n1cnc(CC(NC(=O)C2CCC(=O)N2)C(=O)N2CCCC2C(N)=O)c1` (stereo not given), -0.8; with `COc1cc(CCN)cc(OC)c1OC`, 0.78.
Turning to `CCC(C)c1ccccc1OCC(=O)O` (stereo not given), the logP was 3.32.
Consider `N#CCC(=O)NC(CO)C(O)c1ccc([N+](=O)[O-])cc1` (stereo not given), for which the logP is -0.22.
`NS(=O)(=O)c1ccc2c(c1)S(=O)(=O)NC=N2`: the lipophilicity (logP) is -0.7.
With `c1ccc(-c2cc(-c3ccccc3)c(NCCN3CCOCC3)nn2)cc1` the figure was 3.38.
For `CCOCC`, the logP turned out to be 0.89.
`Cc1cnnc2cc(Cl)ccc12` showed a logP of 1.98.
With `CCCCCCn1nnc2ccccc21` the figure was 3.7; with `CC(C)N(N=Nc1ccc(C(N)=O)cc1)C(C)C`, 3; with `COc1ccc(C(=O)N(C)C)cc1`, 0.96.
Consider `OCCOc1c(Br)cc(Br)cc1Br`, for which the lipophilicity (logP) turned out to be 3.42.
As for `COC1CC(OC2CCC3(C)C(CCC4C3CCC3(C)C(C5=CC(=O)OC5)C(OC(C)=O)CC43O)C2)OC(C)C1O` (stereo not given), the logP is 2.53.
Next, `CC(=O)c1ccc(O)cc1`: 1.35.
Next, `CN(C)C(N(C)C)=S(I)c1ccccc1C(=O)O` (stereo not given): -1.4.
On to `CNC(=O)ON=C(SC)C(=O)N(C)C`, for which the lipophilicity (logP) was -0.47.
With `CC(=O)OC[C@H]1O[C@H](OC(C)=O)[C@H](OC(C)=O)[C@@H](OC(C)=O)[C@@H]1OC(C)=O` the figure was 0.63; with `Fc1cc(F)c(F)c(F)c1F`, 2.53.
As for `NNC(=O)c1ccnc(F)c1`, the lipophilicity (logP) was -0.11.
On to `O=[N+]([O-])c1cccc2cccnc12`, for which the log partition coefficient (logP) came to 1.4.
With `Cc1cc(Cl)ccc1O`, the logP stood at 2.78.
With `CN(C)c1nc(Cl)nc(N(C)C)n1` the figure was 2.31; with `CN(C)C(CSS(=O)(=O)c1ccccc1)CSS(=O)(=O)c1ccccc1`, 3.36.
With `O=C(NP(=O)(N1CC1)N1CC1)c1ccccc1Br` the figure was 1.08.
With `C=CCc1ccccc1OCC(O)CNC(C)C` (stereo not given), the log partition coefficient (logP) was found to be 3.1.
In turn, `O=C(O)Cc1cccc(F)c1` yielded a logP of 1.65.
As for `CN(C)c1cccnc1`, the logP stood at 1.41.
Next, `Nc1ccc(I)cc1`: 2.34.
Next, `COC(=O)C(C)NC(C)=O` (stereo not given): -0.57.
With `Cc1ccc2nc(N)[nH]c2c1` the figure was 1.11; with `CC1CCCC1`, 3.37; with `CNC(=O)Oc1ccc2c(c1)[C@]1(C)CCN(C)[C@@H]1N2C`, 1.58.
With `Nc1cnnc2ccccc12`, the logP turned out to be 1.04.
In turn, `CCOC(=O)C(=Cc1cccc(OC)c1)C(C)=O` yielded a logP of 2.34.
Compound `CC(C)(C)c1cccc(OCC(=O)O)c1` had a log partition coefficient (logP) of 2.96.
